Measurements taken from patent US20250288571A1 (Nested Therapeutics, Inc., priority 2024, published 2025).
Where two headings read alike, the source gives them in different places.

Assays:
IPC298 cells = experiment: IPC298 Cell Titer Glow assay (CTG); conditions: Homo sapiens, IPC-298, 72 h; for IC50: read-out: CTG IC50 (nM) Cell Line: IPC298.2
Experimental: (§1) HCT116 and IPC298 Cell Titer Glow Assay (CTG)
(§2) HCT116 cells and IPC298 cells were diluted with culture medium to the desired density 500 cells/well and 40 μL of cell suspension were added into each well of 384-well cell culture plate. […] The plates were covered and stored at room temperature for 30 minutes without shaking and then the plates were transferred into a 37° C. 5% CO2 incubator overnight.
(§3) A 10 mM solution in dimethyl sulfoxide (DMSO) was prepared for each test compound. A 3 fold, 10-point dilution was prepared from the stock solution. 40 nl of each solution in 100% DMSO was added to the 384-well plate and diluted to a final 0.1% DMSO final concentration. The plates were then incubated for 72 hours (for both cell lines) at 37° C.
(§4) CellTiter-Glo® 2.0 Reagent (Promega, G9242) was removed from the refrigerator and equilibrated at room temperature (23° C.) for 60 minutes. The plates were then removed from the incubator and allowed to equilibrate to room temperature. 30 μL CellTiter-Glo® 2.0 Reagent were added to the assay plates, and spun 1 min/1000 rpm. The plates were allowed to stand for about 20 minutes before being read on Envision using a standard luminescence readout. DMSO was employed as negative control (High control, HC) and 1 uM Staurosporine was employed as positive control (Low control, LC).
(§5) The percent (%) inhibition at each concentration of compound was calculated based on the signal in the negative and positive control wells contained within each assay plate.

HCT116 cells = experiment: HCT116 Cell Titer Glow assay (CTG); conditions: Homo sapiens, HCT-116, 72 h; for IC50: read-out: CTG IC50 (nM) Cell Line: HCT116.20
Experimental: as §1, §2, §3, §4, §5

[1] = read-out: CTG % cell viability 1000 uM HCT116.20, HCT116 cells, 72 hours, 1000 uM, percent cells remaining after treatment
[2] = read-out: CTG % cell viability 100 uM IPC298.2, IPC298 cells, 72 hours, 100 uM, percent cells remaining after treatment
[3] = read-out: CTG % cell viability 100 uM IPC298.2
[4] = read-out: CTG % cell viability 1000 uM HCT116.20

Structure (SMILES)	IC50 (IPC298 cells)	IC50 (HCT116 cells)	viability at 1000 µM (HCT116 cells; [1])	viability at 100 µM (IPC298 cells; [2])	viability at 100 µM (IPC298 cells; [3])	viability at 1000 µM (HCT116 cells; [4])
CNS(=O)(=O)Nc1nccc(Cc2cncc(Nc3ccc(OC(F)F)cn3)c2C)c1F [Example 66, 4-[[5-[[5-(difluoromethoxy)-2-pyridyl]amino]-4-methyl-3-pyridyl]methyl]-3-fluoro-N-(methylsulfamoyl)pyridin-2-amine]	< 10 nM	10 to 100 nM				
CNS(=O)(=O)Nc1nccc(Cc2cncc(Nc3ccc(Cl)cc3F)c2Cl)c1F [Example 67, 4-chloro-N-(4-chloro-2-fluorophenyl)-5-({3-fluoro-2-[(methylsulfamoyl)amino]pyridin-4-yl}methyl)pyridin-3-amine]	< 10 nM	10 to 100 nM				
C=CCNc1cncc(Cc2ccnc(NS(=O)(=O)NC)c2F)c1C [Example 68, 4-[[5-(allylamino)-4-methyl-3-pyridyl]methyl]-3-fluoro-N-(methylsulfamoyl)pyridin-2-amine]	> 1000 nM	500 to 1000 nM				
CNS(=O)(=O)Nc1nccc(Cc2cncc(Nc3ccc(OC(F)(F)F)cn3)c2C)c1F [Example 69, 3-fluoro-N-(methylsulfamoyl)-4-[[4-methyl-5-[[5-(trifluoromethoxy)-2-pyridyl]amino]-3-pyridyl]methyl]pyridin-2-amine]	10 to 100 nM	> 1000 nM	60.4%			
CNS(=O)(=O)Nc1nccc(Cc2cccc(Nc3ccc(Cl)cc3F)c2C)c1F [Example 70, 4-[[3-(4-chloro-2-fluoro-anilino)-2-methyl-phenyl]methyl]-3-fluoro-N-(methylsulfamoyl)pyridin-2-amine]	10 to 100 nM	> 1000 nM	50.2%			
CNS(=O)(=O)Nc1nccc(Cc2cncc(Oc3ccc(SC)cc3)c2C)c1F [Example 71, {[3-fluoro-4-({4-methyl-5-[4-(methylsulfanyl)phenoxy]pyridin-3-yl}methyl)pyridin-2-yl]sulfamoyl}(methyl)amine]	< 10 nM	< 10 nM				
CNS(=O)(=O)Nc1nccc(Cc2cncc(Oc3ccc(S(C)(=O)=O)cc3)c2C)c1F [Example 72, [(3-fluoro-4-{[5-(4-methanesulfonylphenoxy)-4-methylpyridin-3-yl]methyl}pyridin-2-yl)sulfamoyl](methyl)amine]	10 to 100 nM	500 to 1000 nM				
CNS(=O)(=O)Nc1nccc(Cc2cncc(OC3CCC(C)(C)CC3)c2C)c1F [Example 73, 4-[[5-(4,4-dimethylcyclohexoxy)-4-methyl-3-pyridyl]methyl]-3-fluoro-N-(methylsulfamoyl)pyridin-2-amine]	> 1000 nM	> 1000 nM	75.4%	80.8%		
CC#CCOc1cncc(Cc2ccnc(NS(=O)(=O)NC)c2F)c1C [Example 75, 4-[(5-but-2-ynoxy-4-methyl-3-pyridyl)methyl]-3-fluoro-N-(methylsulfamoyl)pyridin-2-amine]	> 1000 nM	> 1000 nM	89.1%	87.5%		
CNS(=O)(=O)Nc1nccc(Cc2cncc(Oc3ccc(Cl)cc3C)c2C)c1F [Example 76, 4-[[5-(4-chloro-2-methyl-phenoxy)-4-methyl-3-pyridyl]methyl]-3-fluoro-N-(methylsulfamoyl)pyridin-2-amine]	< 10 nM	100 to 500 nM				
CNS(=O)(=O)Nc1nccc(Oc2cncc(Oc3ccc(Cl)cc3)c2C)c1F [Example 77, 4-[[5-(4-chlorophenoxy)-4-methyl-3-pyridyl]oxy]-3-fluoro-N-(methylsulfamoyl)pyridin-2-amine]	< 10 nM	100 to 500 nM				
CNS(=O)(=O)Nc1nccc(Cc2cncc(Sc3ccc(Cl)cc3)c2C)c1F [Example 78, {[4-({5-[(4-chlorophenyl)sulfanyl]-4-methylpyridin-3-yl}methyl)-3-fluoropyridin-2-yl]sulfamoyl}(methyl)amine]	< 10 nM	100 to 500 nM				
CNS(=O)(=O)Nc1nccc(Oc2cncc(Nc3ccc(C)cc3F)c2C)c1F [Example 79]	< 10 nM	< 10 nM				
CCc1ccc(Nc2cncc(Oc3ccnc(NS(=O)(=O)NC)c3F)c2C)c(F)c1 [Example 80, N-(4-ethyl-2-fluorophenyl)-5-({3-fluoro-2-[(methylsulfamoyl)amino]pyridin-4-yl}oxy)-4-methylpyridin-3-amine]	< 10 nM	< 10 nM				
CCNS(=O)(=O)Nc1nccc(Cc2cncc(Oc3ccc(Cl)cc3F)c2C)c1F [Example 81, 4-[[5-(4-chloro-2-fluoro-phenoxy)-4-methyl-3-pyridyl]methyl]-N-(ethylsulfamoyl)-3-fluoro-pyridin-2-amine]	< 10 nM	100 to 500 nM				
CNS(=O)(=O)Nc1nccc(Cc2cncc(OCc3ccc(Cl)cc3)c2C)c1F [Example 82, 4-[[5-[(4-chlorophenyl)methoxy]-4-methyl-3-pyridyl]methyl]-3-fluoro-N-(methylsulfamoyl)pyridin-2-amine]	> 1000 nM	> 1000 nM	93%	56%		
CCc1c(Cc2ccnc(NS(=O)(=O)NC)c2F)cncc1Oc1ccc(Cl)cc1 [Example 83, 4-[[5-(4-chlorophenoxy)-4-ethyl-3-pyridyl]methyl]-3-fluoro-N-(methylsulfamoyl)pyridin-2-amine]	< 10 nM	10 to 100 nM				
CNS(=O)(=O)Nc1nccc(Oc2cncc(Oc3ccc(C)cc3Cl)c2C)c1F [Example 84, 4-[[5-(2-chloro-4-methyl-phenoxy)-4-methyl-3-pyridyl]oxy]-3-fluoro-N-(methylsulfamoyl)pyridin-2-amine]	< 10 nM	500 to 1000 nM				
CNS(=O)(=O)Nc1nccc(Cc2cncc(NC3CC4(C3)CN(C)C4)c2C)c1F [Example 85, N-[5-[[3-fluoro-2-(methylsulfamoylamino)-4-pyridyl]methyl]-4-methyl-3-pyridyl]-2-methyl-2-azaspiro[3.3]heptan-6-amine]	> 1000 nM	> 1000 nM			106%	102%
CNS(=O)(=O)Nc1nccc(Cc2cncc(OCc3cccc(Cl)c3)c2C)c1F [Example 86, 4-[[5-[(3-chlorophenyl)methoxy]-4-methyl-3-pyridyl]methyl]-3-fluoro-N-(methylsulfamoyl)pyridin-2-amine]	10 to 100 nM	100 to 500 nM				
CNS(=O)(=O)Nc1nccc(Cc2cccc3c2CCCN3c2ccc(Cl)cc2F)c1F [Example 87, 4-[[1-(4-chloro-2-fluoro-phenyl)-3,4-dihydro-2H-quinolin-5-yl]methyl]-3-fluoro-N-(methylsulfamoyl)pyridin-2-amine]	> 1000 nM	> 1000 nM	95%	101%		
CNS(=O)(=O)Nc1nccc(Cc2cncc(Nc3ccc(CC(C)C)cc3F)c2C)c1F [Example 88, 3-fluoro-4-[[5-(2-fluoro-4-isobutyl-anilino)-4-methyl-3-pyridyl]methyl]-N-(methylsulfamoyl)pyridin-2-amine]	< 10 nM	100 to 500 nM				
CNS(=O)(=O)Nc1nccc(Cc2cncc(Oc3ncc(C)s3)c2C)c1F [Example 89, 3-fluoro-4-[[4-methyl-5-(5-methylthiazol-2-yl)oxy-3-pyridyl]methyl]-N-(methylsulfamoyl)pyridin-2-amine]	> 1000 nM	> 1000 nM	95%	100%		
Cc1c(Cc2ccnc(NS(=O)(=O)NC(C)C)c2F)cncc1Oc1ccc(Cl)cc1F [Example 90, 4-[[5-(4-chloro-2-fluoro-phenoxy)-4-methyl-3-pyridyl]methyl]-3-fluoro-N-(isopropylsulfamoyl)pyridin-2-amine]	10 to 100 nM	> 1000 nM	59.5%			
CNS(=O)(=O)Nc1nccc(Cc2cncc(Oc3ccc(C)cc3F)c2C)c1OC [Example 91, 4-[[5-(2-fluoro-4-methyl-phenoxy)-4-methyl-3-pyridyl]methyl]-3-methoxy-N-(methylsulfamoyl)pyridin-2-amine]	< 10 nM	10 to 100 nM				
CNS(=O)(=O)Nc1nccc(Cc2cncc(OC3CC4(C3)CN(C)C4)c2C)c1F [Example 92, 3-fluoro-4-[[4-methyl-5-[(2-methyl-2-azaspiro[3.3]heptan-6-yl)oxy]-3-pyridyl]methyl]-N-(methylsulfamoyl)pyridin-2-amine]	> 1000 nM	> 1000 nM			101%	103%
CNS(=O)(=O)Nc1nccc(Cc2cncc(Oc3ccc(Cl)cc3F)c2C)c1OC [Example 93, 4-[[5-(4-chloro-2-fluoro-phenoxy)-4-methyl-3-pyridyl]methyl]-3-methoxy-N-(methylsulfamoyl)pyridin-2-amine]	< 10 nM	10 to 100 nM				
CNS(=O)(=O)Nc1nccc(Cc2cncc(Oc3ccc(OC)cc3F)c2C)c1F [Example 94, 3-fluoro-4-[[5-(2-fluoro-4-methoxy-phenoxy)-4-methyl-3-pyridyl]methyl]-N-(methylsulfamoyl)pyridin-2-amine]	< 10 nM	100 to 500 nM				
CCNS(=O)(=O)Nc1nccc(Cc2cncc(Nc3ccc(C)cc3F)c2C)c1F [Example 95, N-(ethylsulfamoyl)-3-fluoro-4-[[5-(2-fluoro-4-methyl-anilino)-4-methyl-3-pyridyl]methyl]pyridin-2-amine]	< 10 nM	10 to 100 nM				
Cc1ccc(Nc2cncc(Cc3ccnc(NS(N)(=O)=O)c3F)c2C)c(F)c1 [Example 96, 3-fluoro-4-[[5-(2-fluoro-4-methyl-anilino)-4-methyl-3-pyridyl]methyl]-2-(sulfamoylamino)pyridine]	< 10 nM	10 to 100 nM				
